The text below walks through data of PubChem BioAssay (NCI).

Assay in all cases: NCI-60 cell line screen, 48 h
Assay [1] has as its system MOLT-4 leukemia.
Assay [2] concerns SNB-19 CNS.
The test system of assay [3] is UO-31 renal.
The test system of assay [4] is CCRF-CEM leukemia.
For assay [5], the system named is KM12 colon.
Assay [6] concerns SR leukemia.
The test system of assay [7] is DU-145 prostate.
Assay [8] deals with NCI-H460 lung.
Assay [9] relates to SK-OV-3 ovarian.
Assay [10] concerns SF-539 CNS.

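96-well plates; 48 h exposure; 5 concentrations. Endpoints by linear interpolation between flanking doses. Not reached: highest tested concentration assigned. At the GI50, growth is halved. TGI is the concentration that stops growth completely.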

For `O=S1(=O)OCCOS(=O)(=O)C1Cc1nc2ccccc2[nH]1`, the TGI was 92.4 µM in [1]; more than 100 µM in [2]; more than 100 µM in assay [3]; more than 100 µM in [4]; more than 100 µM in assay [5]; more than 100 µM in assay [6]. Besides, the TGI in assay [7] and in assay [8] was more than 100 µM each time.
In the case of `CC(C)C1CC(CO)(CNc2cc(Cl)nc(N)n2)C1` (stereo not drawn), the TGI in assay [2], in [3], in [4], in assay [9], in [5] and in assay [6] was more than 100 µM each time. Also, the TGI in assay [7], in [10] and in [8] was more than 100 µM in each case.
With `Cc1cn([C@H]2[C@@H](CO)C[C@H]2O)c(=O)[nH]c1=O`, the TGI in assay [1], in assay [3], in assay [4], in [5], in [6] and in assay [7] was more than 100 µM throughout. In addition, the TGI in [10] and in assay [8] was more than 100 µM each time.
As to `Nc1ncc(/C=N/O)c(NCC2(CO)CC(CCc3ccccc3)C2)n1` (stereo not drawn), the TGI was 23 µM in assay [1]; 26.9 µM in [3]; 50.2 µM in [4]; 31.6 µM in assay [5]; more than 100 µM in [6]; 28.8 µM in assay [7]. Moreover, the figures for the TGI in [10] and in assay [8] were 29.6 µM and 22.1 µM, respectively.
As to `CC/C(Cl)=N\OC(=O)Nc1ccc(F)cc1F`, the TGI in [1] is 4.06 µM; in assay [2] it was more than 56.6 µM; in assay [3], 29.4 µM; in [4], 5.11 µM; in [9], 37.4 µM; in [5] it was 41.3 µM. The TGI in assay [7] was determined as 32.2 µM; in assay [10], 23.5 µM; in assay [8], 85.8 µM.
As for `[N-]=[N+]=C(C(=O)C(=[N+]=[N-])C(=O)c1ccccc1)C(=O)c1ccccc1`, the TGI in assay [2], in assay [3], in [5], in assay [7], in [10] and in assay [8] was more than 100 µM each time.
As for `COc1ccc(/C=C2\CCC(CNc3ccc(Br)cc3)C2=O)cc1` (stereo not drawn), the TGI in assay [1], in assay [2], in assay [3], in [4], in [9] and in [5] was more than 100 µM each time. The TGI in assay [6] was 87.2 µM; in assay [7] it was more than 100 µM; in assay [8] it was more than 100 µM.
As for `COc1ccc(C2=C(OC(=O)N(C)C)c3cccn3-c3cc(Cl)ccc3S2)cc1`, the TGI in assay [1], in assay [4], in assay [9], in assay [5], in assay [6] and in [7] was more than 10 µM in each case.
For the compound `CC(=O)CC1(C)OC(N)=C(C#N)C1(C#N)C#N` (stereo not drawn), the TGI in assay [2], in [3], in assay [4], in assay [9], in assay [5] and in [7] was more than 100 µM throughout. Also, in [10], the TGI was more than 100 µM.
Regarding `CC(C)(C)c1ccc(-c2nnc(-c3cc(C#N)cc(-c4nnc(-c5ccc(C(C)(C)C)cc5)o4)c3)o2)cc1`, the TGI in assay [1], in [2], in assay [3], in assay [4], in assay [9] and in assay [5] was more than 100 µM in each case. The TGI in assay [7] and in [8] was more than 100 µM in each case.
On to `CC(C)(C)c1c(C(C)(C)C)c(=O)c1=O`, for which the TGI in assay [1], in assay [2], in assay [3], in assay [4], in [9] and in assay [5] was more than 100 µM throughout. Moreover, the TGI in [7], in assay [10] and in [8] was more than 100 µM in each case.
`O=C(/C=C/c1ccco1)c1cccc(C(=O)/C=C/c2ccco2)n1`: the TGI in [1] was 6.25 µM; in assay [2], more than 48.8 µM; in assay [3] it was 24.9 µM; in assay [9] it was more than 100 µM; in assay [5], more than 55.8 µM; in assay [6], 6.82 µM. The TGI in assay [7] was more than 100 µM; in [10] it was 17.5 µM; in [8] it was more than 100 µM.
On to `COC(=O)c1c(OC)cc2cc3c(c(O)c2c1C)C(=O)C1(O)C(=O)C=C(OC)C(OC(=O)CC(C)N)=C1C3=O` (stereo not drawn), for which the TGI in assay [1] is 76.3 µM; in assay [2] it was more than 100 µM; in [3], more than 100 µM; in assay [4], 49.5 µM; in [5], 42.7 µM; in assay [6], 47.6 µM. The TGI in assay [7], in [10] and in assay [8] was more than 100 µM in each case.
For the compound `CCOC(=O)CCCn1cc(C(=O)OC)nn1`, the TGI in assay [1], in [2], in assay [3], in [4], in [5] and in assay [7] was more than 100 µM throughout. The TGI in assay [10] and in assay [8] was more than 100 µM in each case.
For the compound `COc1ccc(-c2c3ccccc3c(-c3ccc(OCCCCCBr)cc3)c3ccccc23)cc1`, the TGI in [1], in [2], in assay [3], in [4], in [9] and in assay [5] was more than 100 µM in each case. Also, the TGI in [6], in assay [10] and in [8] was more than 100 µM throughout.
On to `C=C1CC(Cn2cc(Br)c(=O)[nH]c2=O)(c2ccc(-c3ccccc3)cc2)OC1=O` (stereo not drawn), for which the TGI in [2] is 26.8 µM; in assay [3] it was 3.93 µM; in [4] it was 0.712 µM; in assay [9], 15.9 µM; in assay [5] it was 3.68 µM; in assay [7], 4.59 µM. Besides, the TGI was found to be 3.92 µM in assay [10] and 19.7 µM in [8].
Consider `CCN(CC)CCCCC1CCN(CC(=O)N2c3ccccc3NC(=O)CC2C)CC1` (stereo not drawn), for which the TGI in assay [1], in [2], in assay [3], in [4], in assay [9] and in assay [5] was more than 100 µM in each case. In addition, the TGI in [6], in [10] and in assay [8] was more than 100 µM in each case.
For `O=[N+]([O-])/C=C/c1cn(CCCCCn2cc(/C=C/[N+](=O)[O-])c3ccccc32)c2ccccc12`, the TGI in assay [1] was more than 20.4 µM; in assay [2], 24.2 µM; in assay [3], 9.78 µM; in [9], more than 93.5 µM; in assay [5], 3.94 µM; in assay [6] it was more than 100 µM. The figures for the TGI in assay [7], in assay [10] and in assay [8] were 7.25 µM, 5.28 µM and 17.4 µM, respectively.
For the compound `CC12CC(C/C1=N/O)C(C)(C)C2` (stereo not drawn), the TGI in [2], in assay [3], in assay [4], in assay [9], in assay [5] and in assay [7] was more than 100 µM in each case. The TGI in [10] and in assay [8] was more than 100 µM throughout.
Turning to `CCCCCCOc1ccc(C(=N)N(CCCC)CCCC)c2ccccc12`, the GI50 in [3] is 1.14 µM; in assay [9], 1.57 µM; in [5], 1.61 µM; in [7] it was 1.49 µM; in assay [8], 1.56 µM. Besides, the TGI amounted to 2.55 µM in assay [3]; 2.96 µM in [9]; 3.09 µM in assay [5]; 2.86 µM in assay [7]; 3.01 µM in [8].
`O=c1c2c(nc3n1CCC3)sc1c(O)c(Br)ccc12`: the TGI in assay [1] is 55.1 µM; in assay [2] it was more than 100 µM; in [3], 45.8 µM; in assay [4], 45.1 µM; in [9] it was more than 100 µM; in assay [5], 29.7 µM. For the same compound, the TGI came to 54 µM in assay [6], 33 µM in [10] and 34.4 µM in [8].
Take `C=CCOC(=O)CCCCCCCCCCCCCCCOC(=O)C1=C(CCC[C@@H](C)O[Si](C)(C)C(C)(C)C)NC(=O)N2[C@H](CC3(CC/C=C\[C@H](CC)O[Si](C(C)C)(C(C)C)C(C)C)OCCO3)CC[C@H]12`: the TGI in [2], in assay [3], in assay [4], in assay [9], in [5] and in assay [7] was more than 100 µM throughout. Also, the TGI in [10] and in assay [8] was more than 100 µM throughout.
Regarding `C/C(=C\Cc1cc(O)ccc1O)CCc1c(C)cc(O)c(C=O)c1C`, the TGI in assay [1] is more than 100 µM; in [2], more than 100 µM; in [3] it was 78.1 µM; in assay [4] it was 30.5 µM; in [9], more than 100 µM; in [5], more than 100 µM. For the same compound, the results for the TGI in assay [6], in assay [10] and in [8] were more than 100 µM, 38.3 µM and 67.2 µM, respectively. Moreover, the GI50 in assay [4] is 4.46 µM.
